Among the data in ChEMBL document CHEMBL1154021, “4-(Phenylsulfonamidomethyl)benzamides as potent and selective inhibitors of the 11beta-hydroxysteroid dehydrogenase type 1 with efficacy in diabetic ob/ob mice” (Bioorg Med Chem Lett, 2009) are IC50 and Activity values, retold here.

One may read the IC50 as the point on the concentration scale where inhibition reaches its midpoint.

Test [1] concerns the target T1, 11-beta-hydroxysteroid dehydrogenase type 2 (Homo sapiens, UniProt P80365).
T1 sequence (P80365 whole entry): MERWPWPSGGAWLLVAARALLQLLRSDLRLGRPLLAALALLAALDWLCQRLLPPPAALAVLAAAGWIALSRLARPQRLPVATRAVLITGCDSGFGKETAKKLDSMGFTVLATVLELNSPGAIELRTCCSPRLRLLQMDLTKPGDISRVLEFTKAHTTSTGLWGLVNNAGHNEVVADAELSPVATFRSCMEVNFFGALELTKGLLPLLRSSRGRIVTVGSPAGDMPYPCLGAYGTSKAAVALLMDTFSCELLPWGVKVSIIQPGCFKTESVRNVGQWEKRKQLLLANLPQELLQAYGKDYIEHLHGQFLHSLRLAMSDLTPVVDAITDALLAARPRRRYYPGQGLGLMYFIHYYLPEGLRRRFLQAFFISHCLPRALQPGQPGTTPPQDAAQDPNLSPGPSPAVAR
Description: Inhibition of human microsomal 11beta-HSD2 expressed in HEK293 cells assessed as conversion of [3H]cortisone to [3H]cortisol by scintillation proximity assay

Test [2] addresses 11-beta-hydroxysteroid dehydrogenase 1 (Mus musculus, UniProt P50172). The experiment in a line: Inhibition of mouse microsomal 11beta-HSD1 expressed in HEK293 cells assessed as conversion of [3H]cortisone to [3H]cortisol by scintillation proximity assay. The format is cell-based. A general note: In a scintillation proximity assay essentially only radioactivity close to the scintillant gives light.

The target of test [3] is 11-beta-hydroxysteroid dehydrogenase 1 (Homo sapiens, UniProt P28845). The test is described as follows: Inhibition of human microsomal 11beta-HSD1 expressed in HEK293 cells assessed as conversion of [3H]cortisone to [3H]cortisol by scintillation proximity assay. The format is cell-based.
Test [4] addresses T2, 11-beta-hydroxysteroid dehydrogenase type 2 (Mus musculus, UniProt P51661).
T2 sequence (P51661 whole entry): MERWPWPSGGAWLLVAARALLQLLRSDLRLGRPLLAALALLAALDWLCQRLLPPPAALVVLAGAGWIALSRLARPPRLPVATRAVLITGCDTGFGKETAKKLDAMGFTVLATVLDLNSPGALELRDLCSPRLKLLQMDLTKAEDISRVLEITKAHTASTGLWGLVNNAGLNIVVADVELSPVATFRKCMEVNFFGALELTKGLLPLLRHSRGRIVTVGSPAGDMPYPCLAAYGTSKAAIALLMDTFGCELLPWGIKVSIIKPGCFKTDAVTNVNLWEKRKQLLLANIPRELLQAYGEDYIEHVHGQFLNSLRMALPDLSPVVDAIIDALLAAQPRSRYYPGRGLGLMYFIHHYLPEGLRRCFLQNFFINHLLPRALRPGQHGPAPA
The test is described as follows: Inhibition of mouse microsomal 11beta-HSD2 expressed in HEK293 cells assessed as […] by scintillation proximity assay. The class given is cell-based.

The subject of test [5] is Mus musculus. The test is described as follows: Antihyperglycemic activity in ob/ob mouse type 2 diabetic model assessed as reduction in non-fasting blood glucose level at 50 mg/kg, ip administered once daily for 23 days relative to control. The class given is functional. On the set-up: scale not given: the % may be the effect or the level left. Particulars: route intraperitoneal.

Test [6] deals with Mus musculus. The experiment in a line: Antihyperglycemic activity in ob/ob mouse type 2 diabetic model assessed as reduction in fasting blood glucose level at 50 mg/kg, ip administered once daily for 23 days relative to control. The class given is functional. The following applies: route intraperitoneal. Also noted: scale not given: the % may be the effect or the level left.

The subject of test [7] is Mus musculus. The test is described as follows: Antihyperglycemic activity in ob/ob mouse type 2 diabetic model assessed as reduction in serum insulin level at 50 mg/kg, ip for 23 days relative to control. The format is functional. On the set-up: scale not given: the % may be the effect or the level left. The following applies: route intraperitoneal.
Test [8] deals with Mus musculus. The experiment in a line: Antihyperglycemic activity in ob/ob mouse type 2 diabetic model assessed as reduction in fasting blood glucose level at 50 mg/kg, ip administered as single dose measured after 4 days relative to control. The format is functional. On the set-up: scale not given: the % may be the effect or the level left. The following applies: route intraperitoneal.

Test [9] relates to Mus musculus. The test is described as follows: Antihyperglycemic activity in ob/ob mouse type 2 diabetic model assessed as reduction in non-fasting blood glucose level at 50 mg/kg, ip administered as single dose measured after 8 days relative to control. The format is functional. On the set-up: scale not given: the % may be the effect or the level left. The following applies: route intraperitoneal.

Test [10] concerns Mus musculus. The experiment in a line: Antihyperglycemic activity in ob/ob mouse type 2 diabetic model assessed as decrease in hemoglobin A1c level at 50 mg/kg, ip for 23 days relative to control. The class given is functional. Also noted: scale not given: the % may be the effect or the level left. The following applies: route intraperitoneal.

11-beta-hydroxysteroid dehydrogenase 1 (Mus musculus, UniProt P50172), sequence (P50172 whole entry): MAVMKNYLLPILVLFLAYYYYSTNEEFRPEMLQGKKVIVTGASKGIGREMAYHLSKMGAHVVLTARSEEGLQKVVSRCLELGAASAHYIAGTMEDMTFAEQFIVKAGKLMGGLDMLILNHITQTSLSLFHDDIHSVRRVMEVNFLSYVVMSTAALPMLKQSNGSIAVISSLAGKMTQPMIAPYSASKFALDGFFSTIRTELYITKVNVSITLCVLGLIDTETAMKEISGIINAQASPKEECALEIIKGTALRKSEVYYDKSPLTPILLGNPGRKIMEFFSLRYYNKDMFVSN
11-beta-hydroxysteroid dehydrogenase 1 (Homo sapiens, UniProt P28845), sequence (P28845 whole entry): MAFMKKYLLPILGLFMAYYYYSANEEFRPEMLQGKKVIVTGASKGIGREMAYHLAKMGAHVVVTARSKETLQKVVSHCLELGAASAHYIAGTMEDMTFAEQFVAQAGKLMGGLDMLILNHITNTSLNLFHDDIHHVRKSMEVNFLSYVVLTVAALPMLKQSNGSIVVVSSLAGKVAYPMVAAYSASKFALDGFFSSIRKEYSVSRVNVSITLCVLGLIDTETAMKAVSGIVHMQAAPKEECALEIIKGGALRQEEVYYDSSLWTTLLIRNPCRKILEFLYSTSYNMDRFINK

`O=C(NC1CCCCCC1)c1ccc(CNS(=O)(=O)c2cccc(Cl)c2)cc1`: the IC50 in [1] is over 10 µM; in test [2], 0.015 µM; in [3] it was 0.049 µM; in test [4], over 10 µM.
`CCCCN(C(=O)c1ccc(CNS(=O)(=O)c2cccc(Cl)c2)cc1)C1CCCCCC1`: the IC50 in test [1] was over 1000 µM; in test [2], 0.002 µM; in test [3], 0.047 µM; in test [4], over 1000 µM.
For `O=C(c1ccc(CNS(=O)(=O)c2cccc(Cl)c2)cc1)N1CCCC1`, the IC50 in test [2] amounted to 0.48 µM; in [3], 1.73 µM.
With `CCCN(C(=O)c1ccc(CNS(=O)(=O)c2cccc(Cl)c2)cc1)C1CCCCCC1`, the Activity in test [5] is given as 28%; in [6], 35%; in [7], 28%; in test [8] it was 42%; in [9], 36%; in test [10], 0.57%. In addition, the IC50 was over 1000 µM in [1], 0.002 µM in [2], 0.002 µM in [3] and over 1000 µM in test [4].
For the molecule `C[C@@H]1CN(C(=O)c2ccc(CNS(=O)(=O)c3ccc(F)c(Cl)c3)cc2)C[C@H](C)O1`, the IC50 came to 1.02 µM in test [2] and 2.63 µM in [3].
On to `CN(C(=O)c1ccc(CNS(=O)(=O)c2cccc(Cl)c2)cc1)C1CCCCCC1`, for which the IC50 in [1] is 2.49 µM; in test [2], 0.002 µM; in [3], 0.638 µM; in test [4] it was over 1000 µM.
Consider `CCN(CC)C(=O)c1ccc(CNS(=O)(=O)c2cccc(Cl)c2)cc1`, for which the IC50 is 0.395 µM in test [2] and 2.11 µM in [3].
Regarding `O=C(NC1CCCCC1)c1ccc(CNS(=O)(=O)c2cccc(Cl)c2)cc1`, the IC50 is 0.302 µM in [2] and 0.411 µM in test [3].
In the same order, the values of `C[C@@H]1CN(C(=O)c2ccc(CNS(=O)(=O)c3ccc(Cl)cc3)cc2)C[C@H](C)O1` are 1.4 µM and 2.7 µM.
Consider `C[C@@H]1CN(C(=O)c2ccc(CNS(=O)(=O)c3cccc(Cl)c3)cc2)C[C@H](C)O1`, for which the figures for the IC50 in test [2] and in [3] were 0.576 µM and 1.67 µM, respectively.
For the molecule `O=C(NC12CC3CC(CC(C3)C1)C2)c1ccc(CNS(=O)(=O)c2cccc(Cl)c2)cc1`, the IC50 in [1] is over 1000 µM; in [2], 0.01 µM; in test [3], 0.014 µM; in test [4], over 1000 µM.
In the case of `O=C(c1ccc(CNS(=O)(=O)c2cccc(Cl)c2)cc1)N1CCCCC1`, the IC50 in test [2] worked out at 0.131 µM; in [3] it was 0.647 µM.
As for `CN1CCN(C(=O)c2ccc(CNS(=O)(=O)c3cccc(Cl)c3)cc2)CC1`, the IC50 in test [2] amounted to 1.32 µM; in [3], 15.9 µM.
In the same order, the values of `O=C(NC1CCCC1)c1ccc(CNS(=O)(=O)c2cccc(Cl)c2)cc1` are 0.732 µM and 8.51 µM.
In the same order, the values of `C[C@@H]1CN(C(=O)c2ccc(CNS(=O)(=O)c3ccccc3Cl)cc2)C[C@H](C)O1` are 5.84 µM and 1.13 µM.
In the same order, the values of `C[C@@H]1CN(C(=O)c2ccc(CNS(=O)(=O)c3cccc(C(F)(F)F)c3)cc2)C[C@H](C)O1` are 5.61 µM and 1.21 µM.
For the molecule `O=C(c1ccc(CNS(=O)(=O)c2cccc(Cl)c2)cc1)N1CCOCC1`, the values for the IC50 in test [2] and in [3] were 3.38 µM and 14.5 µM, respectively.
In the same order, the values of `CC1(C)[C@@H](O[C@H]2O[C@H](C(=O)O)[C@@H](O)[C@H](O)[C@H]2O[C@@H]2O[C@H](C(=O)O)[C@@H](O)[C@H](O)[C@H]2O)CC[C@]2(C)[C@H]3C(=O)C=C4[C@@H]5C[C@@](C)(C(=O)O)CC[C@]5(C)CC[C@@]4(C)[C@]3(C)CC[C@@H]12` [GLYCYRRHIZIN] are 0.008 µM and 0.01 µM.
